Test results taken from BindingDB's records for doi:10.1021/jm000119i (Rensselaer Polytechnic Institute, 2000).

test: Binding affinity to displace radioligand [3H]naltrindole on Opioid receptor delta 1 in guinea pig membranes.

Structure (SMILES)	Ki
CN1CC[C@]23c4c5ccc(Nc6ccccc6)c4O[C@H]2[C@@H](O)C=C[C@H]3[C@H]1C5	1500 nM
CN(C)c1ccc2c3c1O[C@H]1[C@@H](O)C=C[C@H]4[C@@H](C2)N(C)CC[C@@]341	1600 nM
CN1CC[C@]23c4c5ccc(NCc6ccccc6)c4O[C@H]2[C@@H](O)C=C[C@H]3[C@H]1C5	5500 nM
CNc1ccc2c3c1O[C@H]1[C@@H](O)C=C[C@H]4[C@@H](C2)N(C)CC[C@@]341	5700 nM
CN1CC[C@]23c4c5ccc(N)c4O[C@H]2[C@@H](O)C=C[C@H]3[C@H]1C5	2400 nM
